Patent US12600726B2, “Antagonists of the muscarinic acetylcholine receptor M4” (Vanderbilt University, priority 2017, dated 2026)

Tests used:
Mouse M4 = biological target: T1, Mouse M4 (Mus musculus, UniProt P32211); experiment: mAChR M4 cell-based functional calcium flux assay (mouse M4/Gqi5/CHO cells); conditions: for Emin (mouse M4): % ACh maximum at 30 μM
T1 construct: expressed in transfected cells; host or cells: CHO-K1 (ATCC), stably expressing M4 and Gqi5
T1 sequence (P32211 1-479): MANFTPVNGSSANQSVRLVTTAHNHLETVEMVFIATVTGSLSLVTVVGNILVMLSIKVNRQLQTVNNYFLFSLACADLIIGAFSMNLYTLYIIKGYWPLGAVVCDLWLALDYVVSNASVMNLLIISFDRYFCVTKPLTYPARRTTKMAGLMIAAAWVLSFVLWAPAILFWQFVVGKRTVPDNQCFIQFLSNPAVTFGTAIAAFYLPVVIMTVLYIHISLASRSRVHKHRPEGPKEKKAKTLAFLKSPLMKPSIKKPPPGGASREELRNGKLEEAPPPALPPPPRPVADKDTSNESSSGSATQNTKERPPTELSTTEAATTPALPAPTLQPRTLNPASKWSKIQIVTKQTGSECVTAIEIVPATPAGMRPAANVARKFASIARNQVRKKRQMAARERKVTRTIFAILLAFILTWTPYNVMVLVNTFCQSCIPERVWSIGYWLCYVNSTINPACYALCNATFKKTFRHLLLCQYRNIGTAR
Protocol: Human, rat, or mouse M4. cDNA, along with the chimeric G protein Gqi5, were transfected into Chinese hamster ovary (CHO-K1) cells purchased from the American Type Culture Collection using Lipofectamine2000. M4/Gqi5/CHO cells were grown in Ham's F-12 medium containing 10% heat-inactivated fetal bovine serum (FBS), 20 mM HEPES, 500 μg/mL G418 sulfate, and 200 μg/mL Hygromycin B.
For high throughput measurement of agonist-evoked increases in intracellular calcium, CHO-K1 cells stably expressing muscarinic receptors were plated in growth medium lacking G418 and hygromycin at 15,000 cells/20 μL/well in Greiner 384-well black-walled, tissue culture (TC)-treated, clear-bottom plates (VWR). Cells were incubated overnight at 37° C. and 5% CO2. The next day, cells were washed using an ELX 405 (BioTek) with assay buffer; the final volume was then aspirated to 20 μL. Next, 20 μL of a 2.3 μM stock of Fluo-4/acetoxymethyl ester (Invitrogen, Carlsbad, CA), prepared as a 2.3 mM stock in DMSO and mixed in a 1:1 ratio with 10% (w/v) Pluronic F-127 and diluted in assay buffer, was added to the wells and the cell plates were incubated for 50 min at 37° C. and 5% CO2. Dye was removed by washing with the ELX 405 and the final volume was aspirated to 20 μL. Compound master plates were formatted in a 10 point concentration-response curve (CRC) format (1:3 dilutions) in 100% DMSO with a starting concentration of 10 or 1 mM using a BRAVO liquid handler (Agilent). Test compound CRCs were then transferred to daughter plates (240 nL) using the Echo acoustic plate reformatter (Labcyte, Sunnyvale, CA) and then diluted into assay buffer (40 μL) to a 2× stock using a Thermo Fisher Combi (Thermo Fisher Scientific, Waltham, MA).
Calcium flux was measured using the Functional Drug Screening System (FDSS) 6000 or 7000 (Hamamatsu Corporation, Tokyo, Japan) as an increase in the fluorescent static ratio. Compounds were applied to cells (20 μL, 2×) using the automated system of the FDSS at 2 seconds into the protocol and the data were collected at 1 Hz. At 143 s, 10 μL of an EC20 concentration of the muscarinic receptor agonist acetylcholine was added (5×), followed by the addition of 12 μL of an EC80 concentration of acetylcholine at the 268 s time point (5×). Agonist activity was analyzed as a concentration-dependent increase in calcium mobilization upon compound addition. Positive allosteric modulator activity was analyzed as a concentration-dependent increase in the EC20 acetylcholine response. Antagonist activity was analyzed as a concentration-dependent decrease in the EC80 acetylcholine response; for the purposes of the tables herein, an IC50 (inhibitory concentration 50) was calculated as a concentration-dependent decrease of the response elicited by an EC80 concentration of acetylcholine. Concentration-response curves were generated using a four-parameter logistical equation in XLFit curve fitting software (IDBS, Bridgewater, NJ) for Excel (Microsoft, Redmond, WA) or Prism (GraphPad Software, Inc., San Diego, CA) or the Dotmatics software platform (Dotmatics, Bishop's Stortford, UK).
Compounds were synthesized as described above. Activity (IC50 and Emin) was determined in the mAChR M4 cell-based functional assay as described above and the data are shown in Table 2 and Table 3. The compound number corresponds to the compound numbers used in the examples and Tables 1 and 1.1.

[1] = tested on: haloperidol-induced catalepsy; experiment: haloperidol-induced catalepsy, a model of parkinsonian motor disability; assay type: in vivo, mice
Text: Furthermore, haloperidol-induced catalepsy, a model of parkinsonian motor disability, is reduced in M4 knockout mice as compared to wild-type controls. […] The reversal by scopolamine was uncommonly robust and more pronounced than we observe with agents targeting a number of other targets being evaluated for potential antiparkinsonian effects, including metabotropic glutamate (mGlu) receptors mGlu4 or mGlu5, A2A adenosine receptors, and NMDA receptors. […] Taken together with the extensive studies of M4 modulation of basal ganglia and motor function, these studies provide compelling evidence that M4 is the dominant mAChR subtype involved in the antiparkinsonian effects of non-selective mAChR antagonists and provide support for discovery and development of selective M4 antagonists for treatment of neurodegenerative disease such as PD, dystonia, tardive dyskinesia and other movement disorders.

[2] = decrease of the response to an EC80 concentration of acetylcholine

Emin (mouse M4) (Mouse M4) | IC50 (Mouse M4; in μM, decrease of the EC80 acetylcholine response) | IC50 (Mouse M4; [2]) | Structure (SMILES) | reduction of haloperidol-induced catalepsy ([1]; M4 KO mice) | reversal of haloperidol-induced catalepsy ([1]; WT mice)
37% | > 10 µM | – | c1cc2nncn2nc1NCC1CC12CCN(CC1CCCCC1)CC2 (stereo not shown) [Compound 105, N-[[6-(cyclohexylmethyl)-6-azaspiro[2.5]octan-2-yl]methyl]-[1,2,4]triazolo[4,3-b]pyridazin-6-amine] | – | –
– | – | – | CN1[C@@H]2C[C@@H](OC(=O)[C@H](CO)c3ccccc3)C[C@H]1[C@@H]1O[C@@H]12 [scopolamine] | ineffective | completely reversed
3% | – | 2.81 µM | Fc1ccc(Cl)c(-c2ccc(OCC3CC34CCN(CC3CC5C=CC3C5)CC4)nn2)c1 (stereo not shown) [Compound 86, 6-(5-bicyclo[2.2.1]hept-2-enylmethyl)-2-[[6-(2-chloro-5-fluoro-phenyl)pyridazin-3-yl]oxymethyl]-6-azaspiro[2.5]octane] | – | –
9% | – | 0.68 µM | Fc1ccc(Cl)c(-c2ccc(NC[C@@H]3CC34CCN(CC3CCCOC3)CC4)nn2)c1 (stereo partly drawn) [Compound 106, (R)-6-(2-chloro-5-fluoro-phenyl)-N-[[6-(tetrahydropyran-3-ylmethyl)-6-azaspiro[2.5]octan-2-yl]methyl]pyridazin-3-amine] | – | –
17% | – | 2.82 µM | CC(C)(C)CCN1CCC2(CC1)CC2CNc1ccc2nncn2n1 (stereo not shown) [Compound 104, N-[[6-(3,3-dimethylbutyl)-6-azaspiro[2.5]octan-2-yl]methyl]-[1,2,4]triazolo[4,3-b]pyridazin-6-amine] | – | –
8% | – | 1.24 µM | CC(C)(C)CCN1CCC2(CC1)CC2CNc1ccc(N2CCCCC2)nn1 (stereo not shown) [Compound 78, N-[[6-(3,3-dimethylbutyl)-6-azaspiro[2.5]octan-2-yl]methyl]-6-(1-piperidyl)pyridazin-3-amine] | – | –
13% | – | 1.5 µM | C1=CC2CC1CC2CN1CCC2(CC1)CC2CNc1ccc2nncn2n1 (stereo not shown) [Compound 103, N-[[6-(5-bicyclo[2.2.1]hept-2-enylmethyl)-6-azaspiro[2.5]octan-2-yl]methyl]-[1,2,4]triazolo[4,3-b]pyridazin-6-amine] | – | –
8% | – | 1.29 µM | CC(C)(C)CCN1CCC2(CC1)CC2CNc1ccc2nccn2n1 (stereo not shown) [Compound 102, N-[[6-(3,3-dimethylbutyl)-6-azaspiro[2.5]octan-2-yl]methyl]imidazo[1,2-b]pyridazin-6-amine] | – | –
